From ChEMBL document CHEMBL1140555, “Synthesis and evaluation of novel pyrazolidinone analogs of PGE2 as EP2 and EP4 receptors agonists” (Bioorg Med Chem Lett, 2007) come the findings set out here.

Each structure is given as a SMILES string. Values after ≈ are worked out from the molar mass of the structure shown. Where only a bound is given, the exact number is not on record here.

For data set [1], the target named is T1, Prostaglandin E2 receptor EP2 subtype (Homo sapiens, UniProt P43116). Put plainly: Binding affinity at human prostaglandin EP2 receptor.
Data set [2] deals with T2, Prostaglandin E2 receptor EP4 subtype (Homo sapiens, UniProt P35408). Put plainly: Binding affinity at human prostaglandin EP4 receptor.
The next data set is filed under the species Homo sapiens. Put plainly: Selectivity for human EP4 over human EP2 receptor.
The target of data set [3] is T2, Prostaglandin E2 receptor EP4 subtype. Put plainly: Agonist activity at human prostaglandin EP4 receptor. The format is functional.
Data set [4] in a line: Half life in rat. In kind it is ADME, organism-based. The conditions noted are these: in vivo.
A short description of data set [5]: Oral bioavailability in rat. In kind it is ADME, organism-based. The conditions noted are these: in vivo.
Data set [6] in a line: Apparent permeability of the compound. The following applies: not told. In kind it is ADME.
Data set [7] can be described thus: Fraction unbound ligand in rat. The format is ADME.
Data set [8] in a line: Metabolic stability in rat liver microsomes after 1 hr. The format is ADME, Microsome. The following applies: read-out: Stability. In general terms: Microsomes from liver hold many membrane-bound enzymes, among them those of drug oxidation.
The nature of data set [9]: Metabolic stability in human liver microsomes after 1 hr. The format is ADME, Microsome. The following applies: read-out: Stability.
A short description of data set [10]: Solubility in HBSS. In kind it is physicochemical.
A short description of data set [11]: Solubility in saline. The format is physicochemical.
The next data set concerns Mus musculus. Put plainly: Induction of ovulation in sc dosed CD1 mouse. The format is functional, organism-based.
Data set [12] deals with T1, Prostaglandin E2 receptor EP2 subtype. Put plainly: Agonist activity at human prostaglandin EP2 receptor. In kind it is functional.

T1 sequence (P43116 whole entry): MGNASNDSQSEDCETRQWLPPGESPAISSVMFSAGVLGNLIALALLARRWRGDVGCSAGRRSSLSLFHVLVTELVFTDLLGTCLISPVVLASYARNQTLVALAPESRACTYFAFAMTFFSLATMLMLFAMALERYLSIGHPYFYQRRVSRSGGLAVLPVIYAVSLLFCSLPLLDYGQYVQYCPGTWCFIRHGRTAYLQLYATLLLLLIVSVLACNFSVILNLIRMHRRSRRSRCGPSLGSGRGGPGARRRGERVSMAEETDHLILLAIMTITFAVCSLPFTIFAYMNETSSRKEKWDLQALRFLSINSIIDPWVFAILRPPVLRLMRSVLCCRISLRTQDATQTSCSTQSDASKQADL
T2 sequence (P35408 whole entry): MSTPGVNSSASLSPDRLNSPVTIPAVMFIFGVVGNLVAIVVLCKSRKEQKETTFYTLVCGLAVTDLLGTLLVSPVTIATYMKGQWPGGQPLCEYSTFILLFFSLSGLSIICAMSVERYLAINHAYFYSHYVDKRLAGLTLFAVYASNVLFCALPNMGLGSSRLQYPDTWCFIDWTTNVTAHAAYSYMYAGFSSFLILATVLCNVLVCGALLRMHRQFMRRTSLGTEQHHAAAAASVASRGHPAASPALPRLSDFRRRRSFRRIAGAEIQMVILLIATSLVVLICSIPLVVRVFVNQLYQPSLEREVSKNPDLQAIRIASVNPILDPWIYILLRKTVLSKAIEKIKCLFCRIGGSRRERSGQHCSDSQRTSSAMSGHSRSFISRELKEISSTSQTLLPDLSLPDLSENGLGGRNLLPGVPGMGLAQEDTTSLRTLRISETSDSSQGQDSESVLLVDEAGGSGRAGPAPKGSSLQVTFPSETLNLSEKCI

What is called Ki is the dissociation constant of the complex between target and ligand, obtained from inhibition or displacement. A low value points to higher affinity. For the compound `O=C(O)c1ccc(CCN2C(=O)CCN2CCC(O)Cc2cccc(C(F)(F)F)c2)cc1` (stereo unspecified), the Ki in data set [1] came to 6000 nM; in data set [2], 57 nM.

Consider `CCCCCC(O)CCN1CCC(=O)N1CCc1ccc(C(=O)O)cc1` (stereo unspecified), for which the Selectivity ratio in the data set listed under Homo sapiens worked out at 10.

As a reminder, the EC50 is the concentration giving half of the maximal effect. A word on the half-life: it is the time in which the quantity being followed falls by half. Lower therefore signals fast loss. By bioavailability is commonly meant dose-corrected exposure relative to a reference, in per cent. As a reminder, the Papp is a coefficient for how fast a substance crosses the barrier. For orientation: fraction unbound means the share of the substance not bound to proteins or other matrix. A word on the solubility: it is the concentration that dissolves in the medium under given conditions. On to `O=C(O)c1ccc(CCN2C(=O)CCN2CCC(O)Cc2cccc(Br)c2)cc1` (stereo unspecified), for which the Ki was determined as 5450 nM in data set [1] and 13 nM in [2]. In data set [3], the EC50 was 0.2 nM. Further, the half-life in data set [4] is 4.25 h. For the same compound, the bioavailability in data set [5] amounted to 6.7%. Besides, in data set [6], the Papp was 10 ×10⁻⁶ cm/s. The compound further had a fraction unbound in [7] of 0.61. For the same compound, the remaining at 1 h is 7% in [8] and 0% in data set [9]. In addition, the results for the solubility in data set [10] and in data set [11] were 890 µg/mL (≈ 1930 µM) and 840 µg/mL (≈ 1820 µM), respectively. The Activity result in the data set on Mus musculus was “Dose-dependent effect”.

As for `CC(CCN1CCC(=O)N1CCc1ccc(C(=O)O)cc1)Cc1cccc(CCc2ccccc2)c1` (stereo unspecified), the Ki turned out to be 560 nM in [1] and 44 nM in data set [2].

For `CCCC1(C(O)CCCN2CCC(=O)N2CCc2ccc(C(=O)O)cc2)CCC1` (stereo unspecified), the Ki in data set [1] was 750 nM; in data set [2], > 50000 nM. For the same compound, in data set [12], the EC50 was found to be 393 nM.

For the compound `O=C(O)c1ccc(CCN2C(=O)CCN2CCC(O)Cc2cccc(CCC3CC3)c2)cc1` (stereo unspecified), the Ki in data set [1] came to 8340 nM; in [2] it was 330 nM.

In the case of `O=C(O)c1ccc(CCN2C(=O)CCN2CCC(O)Cc2cccc(Cl)c2)cc1` (stereo unspecified), the EC50 in [3] was found to be 0.2 nM.

Take `O=C(O)c1ccc(CCN2C(=O)CCN2CC[C@@H](O)Cc2ccccc2)cc1`: the results for the inhibition constant Ki in [1] and in [2] were 9200 nM and 134 nM, respectively.

As to `CCCC1([C@H](O)C/C=C/[C@H]2[C@H](O)CC(=O)[C@@H]2CCCCCCC(=O)OC)CCC1` [BUTAPROST], the Ki was 110 nM in data set [1] and > 10000 nM in [2].

As to `O=C(O)c1ccc(CCN2C(=O)CCN2CC[C@@H](O)Cc2cccc(I)c2)cc1`, the values for the Ki in data set [1] and in data set [2] were 2030 nM and 26 nM, respectively.

Consider `O=C(O)c1ccc(CCN2C(=O)CCN2CC[C@@H](O)Cc2cccc(Br)c2)cc1`, for which the Ki in [1] was 3070 nM; in [2], 13 nM. Besides, the EC50 in data set [12] is > 10000 nM; in [3], 0.1 nM.

For `O=C(O)c1ccc(CCN2C(=O)CCN2CCC(O)Cc2ccccc2)cc1` (stereo unspecified), the Selectivity ratio in the data set listed under Homo sapiens stood at 100.

For `O=C(O)c1ccc(CCN2C(=O)CCN2CCC(O)Cc2cccc(I)c2)cc1` (stereo unspecified), the figures for the Ki in data set [1] and in data set [2] were 2360 nM and 27 nM, respectively.
